From PMC5751233, “Characterization of the Asiatic Acid Glucosyltransferase, UGT73AH1, Involved in Asiaticoside Biosynthesis in Centella asiatica (L.) Urban” (International Journal of Molecular Sciences, 2017)

Biological target: T1, UGT73AH1 (Centella asiatica, UniProt A0A2I7M6C4)
T1 construct: full-length ORF with stop codon, untagged, 501 residues; expressed in E. coli BL21 (DE3), soluble total protein extract
T1 sequence (A0A2I7M6C4 1-501): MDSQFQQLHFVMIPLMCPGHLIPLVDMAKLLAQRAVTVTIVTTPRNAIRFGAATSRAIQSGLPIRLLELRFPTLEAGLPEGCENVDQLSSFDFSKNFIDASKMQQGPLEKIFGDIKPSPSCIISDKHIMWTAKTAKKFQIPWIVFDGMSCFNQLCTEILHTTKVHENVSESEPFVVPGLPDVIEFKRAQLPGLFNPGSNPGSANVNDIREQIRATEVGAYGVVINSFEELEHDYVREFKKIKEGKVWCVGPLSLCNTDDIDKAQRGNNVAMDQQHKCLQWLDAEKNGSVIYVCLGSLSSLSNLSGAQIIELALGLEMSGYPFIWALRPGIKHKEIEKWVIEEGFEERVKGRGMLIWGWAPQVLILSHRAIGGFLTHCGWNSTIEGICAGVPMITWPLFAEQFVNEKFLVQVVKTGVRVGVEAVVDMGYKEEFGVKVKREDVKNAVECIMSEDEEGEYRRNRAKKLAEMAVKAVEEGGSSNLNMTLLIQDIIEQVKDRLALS
Test: UPLC-QTOF/MS detection of monoglucoside product
Assay type: biochemical
Details: 5 mM UDP-glucose, 0.5 mM asiatic acid, 50 mM Tris-HCl pH 8.5, 35 °C, 4 h; E. coli total protein extract; boiled-protein control

C[C@H]1[C@H](C)CC[C@]2(C(=O)O)CC[C@]3(C)C(=CC[C@@H]4[C@@]5(C)C[C@@H](O)[C@H](O)[C@@](C)(CO)[C@@H]5CC[C@]43C)[C@H]12 [asiatic acid]
UPLC-QTOF/MS detection of monoglucoside product: our results show that UGT73AH1 catalyzes the glycosylation of asiatic acid
